# Results: ChEMBL document CHEMBL1201862, “PubChem BioAssay data set” (2004)
#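 Cells were grown in 96-well plates and exposed to each compound for 48 hours at five concentrations; endpoints were interpolated linearly between bracketing concentrations, or set to the highest concentration if not reached. Here, GI50 denotes the concentration required for 50% inhibition of growth.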 The source made the active and inactive calls. No stated cut-off is given here; in the data, active = GI50 up to about 1.1 µM and inactive = higher.
# How the values were obtained:
# Test in all cases: NCI anticancer screen, dose series, 48 h
# NCI/ADR-RES = tested on: NCI/ADR-RES
# OVCAR-5 = tested on: OVCAR-5
# SR = tested on: SR
# MOLT-4 = tested on: MOLT-4
# UO-31 = tested on: UO-31
# SNB-75 = tested on: SNB-75
# Hs-578T = tested on: Hs-578T
# RPMI-8226 = tested on: RPMI-8226
# 786-0 = tested on: 786-0
# M14 = tested on: M14
# CAKI-1 = tested on: CAKI-1
# U-251 = tested on: U-251
# EKVX = tested on: EKVX
# PC-3 = tested on: PC-3
# DU-145 = tested on: DU-145
# A549 = tested on: A549
# NCI-H460 = tested on: NCI-H460
# BT-549 = tested on: BT-549
# LOX IMVI = tested on: LOX IMVI
# SK-OV-3 = tested on: SK-OV-3
# NCI-H226 = tested on: NCI-H226
# TK-10 = tested on: TK-10
# K562 = tested on: K562
# CCRF-CEM = tested on: CCRF-CEM
# T47D = tested on: T47D
# COLO 205 = tested on: COLO 205
# SK-MEL-2 = tested on: SK-MEL-2
# Malme-3M = tested on: Malme-3M
# SK-MEL-5 = tested on: SK-MEL-5
# HOP-62 = tested on: HOP-62
# SF-295 = tested on: SF-295
# NCI-H522 = tested on: NCI-H522
# SN12C = tested on: SN12C
# SW-620 = tested on: SW-620
# UACC-257 = tested on: UACC-257
# NCI-H23 = tested on: NCI-H23
# KM12 = tested on: KM12
# OVCAR-4 = tested on: OVCAR-4
# RXF 393 = tested on: RXF 393
# HL-60 = tested on: HL-60
# HT-29 = tested on: HT-29
# MDA-MB-231 = tested on: MDA-MB-231
# ACHN = tested on: ACHN
# OVCAR-8 = tested on: OVCAR-8
# HOP-92 = tested on: HOP-92
# UACC-62 = tested on: UACC-62
# HCT-116 = tested on: HCT-116
# SNB-19 = tested on: SNB-19
# SF-539 = tested on: SF-539
# SK-MEL-28 = tested on: SK-MEL-28
# HCT-15 = tested on: HCT-15
# MDA-MB-435 = tested on: MDA-MB-435
# IGROV-1 = tested on: IGROV-1
# MCF7 = tested on: MCF7
# SF-268 = tested on: SF-268
# HCC 2998 = tested on: HCC 2998
# A498 = tested on: A498
# OVCAR-3 = tested on: OVCAR-3
smiles,measurement,setting,value
Nc1cc(Cl)ccc1SSc1ccc(Cl)cc1N,GI50,NCI/ADR-RES,7.94 µM (inactive)
same,GI50,OVCAR-5,14.8 µM (inactive)
same,GI50,SR,4.32 µM (inactive)
same,GI50,MOLT-4,4.06 µM (inactive)
same,GI50,UO-31,7 µM (inactive)
same,GI50,SNB-75,16.8 µM (inactive)
same,GI50,Hs-578T,8.79 µM (inactive)
same,GI50,RPMI-8226,3.72 µM (inactive)
same,GI50,786-0,13.2 µM (inactive)
same,GI50,M14,8.65 µM (inactive)
same,GI50,CAKI-1,19.6 µM (inactive)
same,GI50,U-251,4.15 µM (inactive)
same,GI50,EKVX,9.55 µM (inactive)
same,GI50,PC-3,5.7 µM (inactive)
same,GI50,DU-145,15.2 µM (inactive)
same,GI50,A549,23.1 µM (inactive)
same,GI50,NCI-H460,12.5 µM (inactive)
same,GI50,BT-549,9.91 µM (inactive)
same,GI50,LOX IMVI,3.49 µM (inactive)
same,GI50,SK-OV-3,15.7 µM (inactive)
same,GI50,NCI-H226,2.94 µM (inactive)
same,GI50,TK-10,20.2 µM (inactive)
same,GI50,K562,10.4 µM (inactive)
same,GI50,CCRF-CEM,3.07 µM (inactive)
same,GI50,T47D,5.92 µM (inactive)
same,GI50,COLO 205,16.8 µM (inactive)
same,GI50,SK-MEL-2,17 µM (inactive)
same,GI50,Malme-3M,15.7 µM (inactive)
same,GI50,SK-MEL-5,14 µM (inactive)
same,GI50,HOP-62,14.6 µM (inactive)
same,GI50,SF-295,11 µM (inactive)
same,GI50,NCI-H522,7.57 µM (inactive)
same,GI50,SN12C,11.9 µM (inactive)
same,GI50,SW-620,3.94 µM (inactive)
same,GI50,UACC-257,17.6 µM (inactive)
same,GI50,NCI-H23,5.61 µM (inactive)
same,GI50,KM12,9.51 µM (inactive)
same,GI50,OVCAR-4,13.6 µM (inactive)
same,GI50,RXF 393,10.3 µM (inactive)
same,GI50,HL-60,16 µM (inactive)
same,GI50,HT-29,16.1 µM (inactive)
same,GI50,MDA-MB-231,5.6 µM (inactive)
same,GI50,ACHN,9.55 µM (inactive)
same,GI50,OVCAR-8,16.6 µM (inactive)
same,GI50,HOP-92,41.7 µM (inactive)
same,GI50,UACC-62,2.88 µM (inactive)
same,GI50,HCT-116,9.16 µM (inactive)
same,GI50,SNB-19,22.6 µM (inactive)
same,GI50,SF-539,12 µM (inactive)
same,GI50,SK-MEL-28,15.9 µM (inactive)
same,GI50,HCT-15,2.99 µM
same,GI50,MDA-MB-435,12.9 µM (inactive)
same,GI50,IGROV-1,10.1 µM (inactive)
same,GI50,MCF7,3.85 µM (inactive)
same,GI50,SF-268,14.7 µM (inactive)
COc1ccc(NC(S)=Nc2cccc(C)n2)cc1,GI50,NCI/ADR-RES,> 100 µM (inactive)
same,GI50,SR,> 100 µM (inactive)
same,GI50,MOLT-4,> 100 µM (inactive)
same,GI50,UO-31,> 100 µM (inactive)
same,GI50,SNB-75,69.5 µM (inactive)
same,GI50,Hs-578T,58.2 µM (inactive)
same,GI50,RPMI-8226,> 100 µM (inactive)
same,GI50,786-0,54 µM (inactive)
same,GI50,M14,> 100 µM (inactive)
same,GI50,CAKI-1,37.9 µM (inactive)
same,GI50,U-251,33.5 µM (inactive)
same,GI50,EKVX,> 100 µM (inactive)
same,GI50,PC-3,> 100 µM (inactive)
same,GI50,DU-145,> 100 µM (inactive)
same,GI50,NCI-H460,> 100 µM (inactive)
same,GI50,BT-549,> 100 µM (inactive)
same,GI50,LOX IMVI,> 100 µM (inactive)
same,GI50,SK-OV-3,> 100 µM (inactive)
same,GI50,NCI-H226,> 100 µM (inactive)
same,GI50,TK-10,> 100 µM (inactive)
same,GI50,K562,75.3 µM (inactive)
same,GI50,CCRF-CEM,> 100 µM (inactive)
same,GI50,T47D,> 100 µM (inactive)
same,GI50,COLO 205,> 100 µM (inactive)
same,GI50,SK-MEL-2,> 100 µM (inactive)
same,GI50,SK-MEL-5,> 100 µM (inactive)
same,GI50,HOP-62,25.6 µM (inactive)
same,GI50,SF-295,33.3 µM (inactive)
same,GI50,SW-620,> 100 µM (inactive)
same,GI50,HCC 2998,> 100 µM (inactive)
same,GI50,UACC-257,> 100 µM (inactive)
same,GI50,NCI-H23,84.5 µM (inactive)
same,GI50,KM12,> 100 µM (inactive)
same,GI50,OVCAR-4,> 100 µM (inactive)
same,GI50,RXF 393,28.4 µM (inactive)
same,GI50,HL-60,> 100 µM (inactive)
same,GI50,HT-29,> 100 µM (inactive)
same,GI50,MDA-MB-231,> 100 µM (inactive)
same,GI50,ACHN,> 100 µM (inactive)
same,GI50,OVCAR-8,96.8 µM (inactive)
same,GI50,HOP-92,39.5 µM (inactive)
same,GI50,UACC-62,> 100 µM (inactive)
same,GI50,A498,> 100 µM (inactive)
same,GI50,HCT-116,> 100 µM (inactive)
same,GI50,SNB-19,> 100 µM (inactive)
same,GI50,SF-539,74.6 µM (inactive)
same,GI50,SK-MEL-28,> 100 µM (inactive)
same,GI50,HCT-15,78.2 µM
same,GI50,MDA-MB-435,> 100 µM (inactive)
same,GI50,IGROV-1,70.6 µM (inactive)
same,GI50,MCF7,> 100 µM (inactive)
same,GI50,SF-268,55.1 µM (inactive)
Nc1nc(N)c2ncn(-c3ccccc3)c2n1,GI50,NCI/ADR-RES,> 100 µM (inactive)
same,GI50,OVCAR-5,> 100 µM (inactive)
same,GI50,MOLT-4,29.6 µM (inactive)
same,GI50,UO-31,68.2 µM (inactive)
same,GI50,Hs-578T,52.6 µM (inactive)
same,GI50,M14,> 100 µM (inactive)
same,GI50,CAKI-1,82.6 µM (inactive)
same,GI50,PC-3,> 100 µM (inactive)
same,GI50,DU-145,> 100 µM (inactive)
same,GI50,A549,48.9 µM (inactive)
same,GI50,OVCAR-3,89.9 µM (inactive)
same,GI50,BT-549,> 100 µM (inactive)
same,GI50,SK-OV-3,> 100 µM (inactive)
same,GI50,TK-10,> 100 µM (inactive)
same,GI50,CCRF-CEM,23.7 µM (inactive)
same,GI50,T47D,> 100 µM (inactive)
same,GI50,SF-295,> 100 µM (inactive)
same,GI50,NCI-H522,> 100 µM (inactive)
same,GI50,SN12C,88.3 µM (inactive)
same,GI50,HCC 2998,48.4 µM (inactive)
same,GI50,NCI-H23,> 100 µM (inactive)
same,GI50,KM12,24.2 µM (inactive)
same,GI50,RXF 393,57.9 µM (inactive)
same,GI50,HT-29,> 100 µM (inactive)
same,GI50,MDA-MB-231,> 100 µM (inactive)
same,GI50,ACHN,> 100 µM (inactive)
same,GI50,OVCAR-8,> 100 µM (inactive)
same,GI50,HOP-92,> 100 µM (inactive)
same,GI50,UACC-62,71 µM (inactive)
same,GI50,A498,> 100 µM (inactive)
same,GI50,HCT-116,> 100 µM (inactive)
same,GI50,SK-MEL-28,> 100 µM (inactive)
same,GI50,HCT-15,> 100 µM
same,GI50,MDA-MB-435,> 100 µM (inactive)
same,GI50,IGROV-1,36.3 µM (inactive)
same,GI50,MCF7,63.8 µM (inactive)
same,GI50,SF-268,> 100 µM (inactive)
